Data as given in patent US11591355B2 (Peloton Therapeutics, Inc., priority 2017, dated 2023).
pIC50: −log10 of the molar value.

Columns and labels:
[1] = target: T1, CD73 on U138 human neuroglioma cells (Homo sapiens, UniProt P21589); experiment: CD73 Cell-Based Assay; conditions: U138 cells, AMP substrate, 2 hours at 37° C., inorganic phosphate by malachite green
T1 construct: U138 cells were obtained from ATCC and cultured in DMEM with 10% FBS; host or cells: U138 human neuroglioma cells
T1 sequence (P21589 27-549): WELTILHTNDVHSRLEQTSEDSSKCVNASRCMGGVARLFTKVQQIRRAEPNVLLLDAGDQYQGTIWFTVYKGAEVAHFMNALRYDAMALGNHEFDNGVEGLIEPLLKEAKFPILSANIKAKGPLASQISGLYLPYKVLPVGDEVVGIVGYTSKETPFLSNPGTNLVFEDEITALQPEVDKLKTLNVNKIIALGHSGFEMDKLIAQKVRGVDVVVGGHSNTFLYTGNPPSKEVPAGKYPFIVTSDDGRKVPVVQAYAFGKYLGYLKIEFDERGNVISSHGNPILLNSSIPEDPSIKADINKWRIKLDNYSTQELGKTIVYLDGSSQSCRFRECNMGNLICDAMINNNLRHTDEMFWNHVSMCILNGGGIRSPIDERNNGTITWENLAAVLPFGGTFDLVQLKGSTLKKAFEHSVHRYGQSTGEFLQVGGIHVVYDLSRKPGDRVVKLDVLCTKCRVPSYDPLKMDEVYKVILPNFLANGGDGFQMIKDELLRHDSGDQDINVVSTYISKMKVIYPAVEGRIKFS
Method in brief: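 Whole U138 cells washed free of phosphate were incubated with 200 μM AMP (mixture concentration before equal-volume addition) plus compound in HEPES-buffered saline, pH 7.4, for 2 h at 37 °C, 5% CO2. Adenosine-forming activity read as inorganic phosphate released into supernatant by malachite green.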

Human CD73 = target: T2, Human CD73 (Homo sapiens, UniProt P21589); experiment: CD73 Enzyme Assay; type: biochemical; conditions: 0.25 nM hCD73, 25 μM AMP, kinetic read at 360 nm; read-out: CD73 Enzyme Assay IC50
T2 construct: purchased R&D Systems; host or cells: CHO cells
T2 sequence (P21589 27-549): T1 sequence (P21589 27-549)

## C[C@@H](Nc1nc(Cl)nc2c1c(F)cn2[C@@H]1O[C@H](COCP(=O)(O)O)[C@@H](O)[C@H]1O)c1ccccc1 [Compound 130, [(2R,3S,4R,5R)-5-[2-chloro-5-fluoro-4-[[(1R)-1-phenylethyl]-amino]pyrrolo[2,3-d]-pyrimidin-7-yl]-3,4-dihydroxy-tetrahydro-furan-2-yl]methoxy-methylphosphonic acid]
[1]
  pIC50: 7.00 to 8.00
Human CD73
  pIC50: 7.00 to 8.00

## C[C@@H](c1ccccc1)N(C)c1nc(Cl)nc2c1ccn2[C@@H]1O[C@H](COCP(=O)(O)O)[C@@H](O)[C@H]1O [Compound 131, [(2R,3S,4R,5R)-5-[2-chloro-4-[methyl-[(1S)-1-phenylethyl]-amino]pyrrolo[2,3-d]-pyrimidin-7-yl]-3,4-dihydroxy-tetrahydro-furan-2-yl]methoxy-methylphosphonic acid]
[1]
  pIC50: > 8.00
Human CD73
  pIC50: > 8.00

## C[C@H](c1ccccc1)N(C)c1nc(Cl)nc2c1ccn2[C@@H]1O[C@H](COCP(=O)(O)OCOC(=O)C(C)(C)C)[C@@H](O)[C@H]1O [Compound 132, ((((((2R,3S,4R,5R)-5-(2-chloro-4-(methyl((R)-1-phenylethyl)amino)-7H-pyrrolo[2,3-d]pyrimidin-7-yl)-3,4-dihydroxytetrahydrofuran-2-yl)methoxy)methyl)(hydroxy)phosphoryl)oxy)methyl pivalate]
[1]
  pIC50: 7.00 to 8.00
Human CD73
  pIC50: > 8.00

## C[C@H](c1ccccc1)N(C)c1nc(Cl)nc2c1ccn2[C@@H]1O[C@H](COCP(=O)(OCOC(=O)C(C)(C)C)OCOC(=O)C(C)(C)C)[C@@H](O)[C@H]1O [Compound 133, ((((((2R,3S,4R,5R)-5-(2-chloro-4-(methyl((R)-1-phenylethyl)amino)-7H-pyrrolo[2,3-d]pyrimidin-7-yl)-3,4-dihydroxytetrahydrofuran-2-yl)methoxy)methyl)phosphoryl)bis(oxy))bis(methylene) bis(2,2-dimethylpropanoate)]
[1]
  pIC50: < 6.00
Human CD73
  pIC50: < 6.00

## C[C@@H](Nc1cc(Cl)nc2c1ccn2[C@@H]1O[C@H](COCP(=O)(O)O)[C@@H](O)[C@H]1O)c1ccccc1 [Compound 134, [(2R,3S,4R,5R)-5-[6-chloro-4-[[(1R)-1-phenylethyl]amino]pyrrolo[2,3-b]pyridin-1-yl]-3,4-dihydroxy-tetrahydrofuran-2-yl]methoxymethylphosphonic acid]
[1]
  pIC50: 7.00 to 8.00
Human CD73
  pIC50: > 8.00

## C[C@@H](Nc1nc(Cl)nc2c1ccn2[C@@H]1O[C@H](COCP(=O)(O)O)[C@@H](O)[C@H]1O)c1ccc(F)cn1 [Compound 135, [(2R,3S,4R,5R)-5-[2-chloro-4-[[(1R)-1-(5-fluoro-2-pyridyl)ethyl]-amino]pyrrolo[2,3-d]-pyrimidin-7-yl]-3,4-dihydroxy-tetrahydro-furan-2-yl]methoxy-methylphosphonic acid]
[1]
  pIC50: 7.00 to 8.00
Human CD73
  pIC50: 6.00 to 7.00

## Cc1ccc([C@@H](C)Nc2nc(Cl)nc3c2ccn3[C@@H]2O[C@H](COCP(=O)(O)O)[C@@H](O)[C@H]2O)cc1 [Compound 136, [(2R,3S,4R,5R)-5-[2-chloro-4-[[(1R)-1-(p-tolyl)ethyl]amino]-pyrrolo[2,3-d]-pyrimidin-7-yl]-3,4-dihydroxy-tetrahydro-furan-2-yl]methoxy-methylphosphonic acid]
[1]
  pIC50: > 8.00
Human CD73
  pIC50: > 8.00

## Cc1ccc([C@@H](C)Nc2nc(C#N)nc3c2ccn3[C@@H]2O[C@H](COCP(=O)(O)O)[C@@H](O)[C@H]2O)cc1 [Compound 137, [(2R,3S,4R,5R)-5-[2-cyano-4-[[(1R)-1-(p-tolyl)ethyl]amino]-pyrrolo[2,3-d]-pyrimidin-7-yl]-3,4-dihydroxy-tetrahydro-furan-2-yl]methoxy-methylphosphonic acid]
[1]
  pIC50: > 8.00
Human CD73
  pIC50: 7.00 to 8.00

## C[C@H](Nc1nc(C#N)nc2c1ccn2[C@@H]1O[C@H](COCP(=O)(O)O)[C@@H](O)[C@H]1O)c1ccc(F)cc1F [Compound 138, [(2R,3S,4R,5R)-5-[2-cyano-4-[[(1S)-1-(2,4-difluorophenyl)ethyl]-amino]pyrrolo[2,3-d]-pyrimidin-7-yl]-3,4-dihydroxy-tetrahydro-furan-2-yl]methoxy-methylphosphonic acid]
[1]
  pIC50: > 8.00
Human CD73
  pIC50: > 8.00

## C[C@H](Nc1nc(Cl)nc2c1ccn2[C@@H]1O[C@H](COCP(=O)(O)O)[C@@H](O)[C@H]1O)c1ccc(F)cn1 [Compound 139, [(2R,3S,4R,5R)-5-[2-chloro-4-[[(1S)-1-(5-fluoro-2-pyridyl)-ethyl]amino]pyrrolo-[2,3-d]pyrimidin-7-yl]-3,4-dihydroxy-tetrahydrofuran-2-yl]-methoxymethylphos-phonic acid]
[1]
  pIC50: 7.00 to 8.00
Human CD73
  pIC50: > 8.00

## C[C@H](Nc1nc(Cl)nc2c1ccn2[C@@H]1O[C@H](COCP(=O)(O)O)[C@@H](O)[C@H]1O)c1ccc(Cl)cc1 [Compound 140, [(2R,3S,4R,5R)-5-[2-chloro-4-[[(1S)-1-(4-chlorophenyl)ethyl]-amino]pyrrolo[2,3-d]-pyrimidin-7-yl]-3,4-dihydroxy-tetrahydro-furan-2-yl]methoxy-methylphosphonic acid]
[1]
  pIC50: > 8.00
Human CD73
  pIC50: > 8.00

## C[C@H](Nc1nc(C#N)nc2c1ccn2[C@@H]1O[C@H](COCP(=O)(O)O)[C@@H](O)[C@H]1O)c1ccc(C#N)cc1 [Compound 141, [(2R,3S,4R,5R)-5-[2-cyano-4-[[(1S)-1-(4-cyanophenyl)ethyl]-amino]pyrrolo[2,3-d]-pyrimidin-7-yl]-3,4-dihydroxy-tetrahydro-furan-2-yl]methoxy-methylphosphonic acid]
[1]
  pIC50: > 8.00
Human CD73
  pIC50: > 8.00

## N#Cc1nc(NC2CCC(F)(F)CC2)c2ccn([C@@H]3O[C@H](COCP(=O)(O)O)[C@@H](O)[C@H]3O)c2n1 [Compound 142, [(2R,3S,4R,5R)-5-[2-cyano-4-[(4,4-difluoro-cyclohexyl)amino]-pyrrolo[2,3-d]-pyrimidin-7-yl]-3,4-dihydroxy-tetrahydro-furan-2-yl]methoxy-methylphosphonic acid]
[1]
  pIC50: > 8.00
Human CD73
  pIC50: > 8.00

## N#Cc1nc(N2CCCCC2)c2ccn([C@@H]3O[C@H](COCP(=O)(O)O)[C@@H](O)[C@H]3O)c2n1 [Compound 143, [(2R,3S,4R,5R)-5-[2-cyano-4-(1-piperidyl)-pyrrolo[2,3-d]-pyrimidin-7-yl]-3,4-dihydroxy-tetrahydro-furan-2-yl]methoxy-methylphosphonic acid]
[1]
  pIC50: 7.00 to 8.00
Human CD73
  pIC50: > 8.00

## C[C@@H](Nc1nc(Cl)nc2c1ccn2[C@@H]1O[C@H](COCP(=O)(O)O)[C@@H](O)[C@H]1O)c1ccc(F)cc1F [Compound 144, [(2R,3S,4R,5R)-5-[2-chloro-4-[[(1R)-1-(2,4-difluorophenyl)-ethyl]amino]pyrrolo-[2,3-d]pyrimidin-7-yl]-3,4-dihydroxy-tetrahydrofuran-2-yl]-methoxymethylphos-phonic acid]
[1]
  pIC50: > 8.00
Human CD73
  pIC50: > 8.00

## C[C@@H](Nc1nc(C#N)nc2c1ccn2[C@@H]1O[C@H](COCP(=O)(O)O)[C@@H](O)[C@H]1O)c1ccc(F)cn1 [Compound 145, [(2R,3S,4R,5R)-5-[2-cyano-4-[[(1R)-1-(5-fluoro-2-pyridyl)ethyl]-amino]pyrrolo[2,3-d]-pyrimidin-7-yl]-3,4-dihydroxy-tetrahydro-furan-2-yl]methoxy-methylphosphonic acid]
[1]
  pIC50: 7.00 to 8.00
Human CD73
  pIC50: 6.00 to 7.00

## C[C@H](Nc1nc(C#N)nc2c1ccn2[C@@H]1O[C@H](COCP(=O)(O)O)[C@@H](O)[C@H]1O)c1ccc(F)cn1 [Compound 146]
[1]
  pIC50: 7.00 to 8.00
Human CD73
  pIC50: 6.00 to 7.00
